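Assay format: 96-well plates, 48-hour exposure. TGI marks complete inhibition of growth.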
Experiments:
Test in all cases: NCI anticancer screen, dose series, 48 h
A549 NSCLC = tested on: A549 NSCLC
UACC-62 melanoma = tested on: UACC-62 melanoma
DU-145 prostate = tested on: DU-145 prostate
LOX IMVI melanoma = tested on: LOX IMVI melanoma
HL-60(TB) leukemia = tested on: HL-60(TB) leukemia
OVCAR-3 ovarian = tested on: OVCAR-3 ovarian
SF-268 CNS = tested on: SF-268 CNS
RPMI-8226 leukemia = tested on: RPMI-8226 leukemia
KM12 colon = tested on: KM12 colon
NCI-H23 lung = tested on: NCI-H23 lung
HOP-62 NSCLC = tested on: HOP-62 NSCLC
HCC-2998 colon = tested on: HCC-2998 colon
SW-620 colon = tested on: SW-620 colon

SMILES	TGI (A549 NSCLC)	TGI (UACC-62 melanoma)	TGI (DU-145 prostate)	TGI (LOX IMVI melanoma)	TGI (HL-60(TB) leukemia)	TGI (OVCAR-3 ovarian)	TGI (SF-268 CNS)	TGI (RPMI-8226 leukemia)	TGI (KM12 colon)	TGI (NCI-H23 lung)	TGI (HOP-62 NSCLC)	TGI (HCC-2998 colon)	TGI (SW-620 colon)
O=C1c2c(Br)sc(Br)c2C(=O)C1(O)O	> 100 µM	> 100 µM	> 100 µM	> 100 µM	> 100 µM	35.9 µM	> 100 µM	> 100 µM	> 100 µM	99.6 µM	> 100 µM	> 100 µM	> 100 µM
Cc1ccnc2c1C(=O)C1=C(OC(C)(C)CC1O)C2=O (stereo not drawn)	21.6 µM	3.25 µM	17.2 µM	8.91 µM	> 24 µM	7.18 µM	17.5 µM	> 39.3 µM	15 µM	4.82 µM	13.6 µM	15.3 µM	10.4 µM
COCCn1cnc2c(Cl)nc(Nc3ccccc3)nc21	> 100 µM	85.1 µM	> 100 µM	33.2 µM	63.3 µM	34.1 µM	> 100 µM	> 100 µM	> 100 µM	> 100 µM	> 100 µM	40 µM	> 100 µM
C=C1CCCCCCCCC/C=C/1SCCCSC	> 100 µM	> 100 µM	> 100 µM	> 100 µM	> 100 µM	> 100 µM	> 100 µM	> 100 µM	> 100 µM	> 100 µM	> 100 µM	> 100 µM	> 100 µM
NCCCNCCCCN1CCOC1=O	> 100 µM	> 100 µM	> 100 µM	> 100 µM	> 100 µM	> 100 µM	> 100 µM	> 100 µM	> 100 µM	> 100 µM	> 100 µM	> 100 µM	> 100 µM
CCOC(=O)C(NC(=O)c1ccccc1)(N1CCN(c2cc3c(cc2F)c(=O)c(C(=O)O)cn3C2CC2)CC1)C(F)(F)F (stereo not drawn)	> 100 µM	47.6 µM	> 100 µM	–	36.5 µM	48.6 µM	41.8 µM	54.1 µM	31.7 µM	32.9 µM	> 100 µM	38.6 µM	51.1 µM
COC(=O)[C@@H](NC(=O)N(Cc1ccccc1)C[C@H](CC(C)C)NC(=O)[C@@H](NC(=O)OC(C)(C)C)C(C)C)C(C)C	> 100 µM	> 100 µM	> 100 µM	> 100 µM	> 100 µM	> 100 µM	> 100 µM	> 100 µM	> 100 µM	> 100 µM	> 100 µM	> 100 µM	> 100 µM
COc1cccc(CC(=O)N2CCN(CCCc3ccccc3)CC2)c1	> 100 µM	> 100 µM	> 100 µM	> 100 µM	> 100 µM	> 100 µM	> 100 µM	> 100 µM	> 100 µM	> 100 µM	> 100 µM	> 100 µM	> 100 µM
